Experimental data published in patent US11976043B1, “3-cyano-2-ethoxy-9-(2-nitrobenzylidene)-4-(2-nitrophenyl)-6,7,8,9-tetrahydro-5H-cyclohepta[b]pyridine as an antimicrobial compound” (KING FAISAL UNIVERSITY, priority 2023, dated 2024).

Assays:
Conditions in all cases: after 10, 20, 40 and 60 min at all dilutions 1:100, 1:200, 1:400, 1:800
Ps. aeruginosa = assay: Antimicrobial testing by agar dilution, Ps. aeruginosa; type: cell-based, Pseudomonas aeruginosa
Experimental: (§1) The antimicrobial properties of the 3-cyano-2-ethoxy-9-(2-nitrobenzylidene)-4-(2-nitrophenyl)-6,7,8,9-tetrahydro-5H-cyclohepta[b]pyridine was studied by the method of agar dilution. Test solutions of each compound was prepared in concentration of 1% using dimethylformamide as a solvent then they are diluted in physiological solution to obtain the final experimental dilutions 1:100, 1:200, 1:400, 1:800. The effect of these substances are compared with furacillin in a controlable study. The testing microbes used were gram positive bacteria St. Aereus, gram negative bacteria E. coli, Ps. aeruginosa and Candida albicans fungi were taken.
(§2) The experiments used for this survey were meat-pentonlu agar (EPA) for cultivation of bacteria and Saburo environment for fungi. Each experiment used 1 ml of test solution on each plate 500 min. Add 2 drops of emulsified with microbes feel. All experimental samples were taken from the agar after 10, 20, 40, 60 minutes in the environment on the basis of Patrk planted. Bacteria were cultivated at a temperature of 37° C. for 1 day and the mushroom was kept in a thermostat for […] at a temperature of 28° C. in the. Then results were checked.

St. Aereus = assay: Antimicrobial testing by agar dilution, St. Aereus; type: cell-based, Staphylococcus aureus
Experimental: as §1, §2

E. coli = assay: Antimicrobial testing by agar dilution, E. coli; type: cell-based, Escherichia coli
Experimental: as §1, §2

Candida albicans = assay: Antimicrobial testing by agar dilution, Candida albicans; type: cell-based
Experimental: as §1, §2

Measured: inhibition activity (in words)

CCOc1nc2c(c(-c3ccccc3[N+](=O)[O-])c1C#N)CCCCC2=Cc1ccccc1[N+](=O)[O-] [3-cyano-2-ethoxy-9-(2-nitrobenzylidene)-4-(2-nitrophenyl)-6,7,8,9-tetrahydro-5H-cyclohepta[b]pyridine]
most higher inhibition activity: Ps. aeruginosa | St. Aereus | E. coli | Candida albicans
